According to PMC3556479 (Biochemistry, 2013):

Assays:
Assay type in all cases: biochemical
[1] = molecular target: T1, orotidine 5′-monophosphate decarboxylase (OMPDC) (Saccharomyces cerevisiae, UniProt P03962, S2H/C155S/A160S/N267D)
T1 sequence (P03962 2-267 S2H/C155S/A160S/N267D): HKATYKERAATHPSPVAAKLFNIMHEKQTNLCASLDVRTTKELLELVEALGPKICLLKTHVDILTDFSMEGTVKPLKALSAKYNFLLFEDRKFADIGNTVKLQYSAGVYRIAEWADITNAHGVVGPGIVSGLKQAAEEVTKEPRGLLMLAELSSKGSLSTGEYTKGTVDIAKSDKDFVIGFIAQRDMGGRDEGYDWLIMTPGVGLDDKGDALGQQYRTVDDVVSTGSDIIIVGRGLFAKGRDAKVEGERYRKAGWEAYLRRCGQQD

[2] = molecular target: T1, orotidine 5′-monophosphate decarboxylase (OMPDC); remark: listed apart in the source
[3] = molecular target: T2, orotidine 5′-monophosphate decarboxylase (OMPDC) (Saccharomyces cerevisiae, UniProt P03962, A160S/C155S/N267D/S2H); assay: activation of FEO decarboxylation by added phosphite, nonlinear fit to eq […]
T2 sequence (P03962 2-267 S2H/C155S/A160S/N267D): T1 sequence (P03962 2-267 S2H/C155S/A160S/N267D)

O=C(O)c1c(F)c(=O)[nH]c(=O)n1[C@@H]1OC[C@@H](O)[C@H]1O [FEO, 1-(β-D-Erythrofuranosyl)-5-fluoroorotic acid]
spectrophotometric decarboxylation assay at 282 nm, purified yeast OMPDC, with a [1]: 10 M^−1 s^−1 (kcat/Km)

C[C@H]1O[C@@H](n2c(C(=O)O)c(F)c(=O)[nH]c2=O)[C@H](O)[C@@H]1O [5′-dFO, 5′-Deoxy-5-fluoroorotidine]
HPLC initial-velocity decarboxylation assay, purified yeast OMPDC, with and with [2]: 0.078 M^−1 s^−1 (kcat/Km)

O=[PH](O)O [HPO3^2−, phosphite dianion]
Kd [3]: 100 mM
